The text below walks through data of ChEMBL document CHEMBL1201862, “PubChem BioAssay data set” (2004).

Common to all, as to experiment: NCI anticancer screen, dose series, 48 h
Experiment [1] concerns MDA-N.
The subject of experiment [2] is SK-MEL-2.
For experiment [3], the system named is SN12C.
Experiment [4] deals with CAKI-1.
For experiment [5], the system named is RXF 393.
The test system of experiment [6] is IGROV-1.
Experiment [7] has as its system SW-620.
The test system of experiment [8] is OVCAR-8.
Experiment [9] deals with PC-3.
In experiment [10] the test system is MOLT-4.
For experiment [11], the system named is HL-60.
In experiment [12] the test system is BT-549.
The subject of experiment [13] is SNB-75.
In experiment [14] the test system is HCC 2998.
The test system of experiment [15] is ACHN.
The test system of experiment [16] is M14.
Experiment [17] relates to SF-539.
The subject of experiment [18] is NCI/ADR-RES.
The test system of experiment [19] is OVCAR-3.
The subject of experiment [20] is UACC-257.

The structures appear in SMILES notation.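 The compound was tested at five concentrations on cells cultured in 96-well plates, with a 48-hour exposure period. At the GI50, growth is halved.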 Active and inactive are the calls of the source. Cut-off read from the data, not from the text of the source: active = GI50 up to about 1.1 µM and inactive = higher. Some results are limits rather than exact numbers.

With `Nc1ccc(S(=O)(=O)Nc2nc3ccccc3nc2N2CCCCC2)cc1`, the GI50 in experiment [1] is > 100 µM (inactive); in experiment [2], 88.1 µM (inactive); in experiment [3] it was 82 µM (inactive); in experiment [4] it was > 100 µM (inactive); in experiment [5], 55.2 µM (inactive); in experiment [6], 80.9 µM (inactive). Further, the GI50 was 59 µM (inactive) in experiment [7]; 61.8 µM (inactive) in [8]; 59.3 µM (inactive) in experiment [9]; 27.5 µM (inactive) in experiment [10]; 46.3 µM (inactive) in experiment [11]; 23.8 µM (inactive) in experiment [12]. The GI50 in experiment [13] is 24.3 µM (inactive); in [14] it was 33.7 µM (inactive); in experiment [15], 98.6 µM (inactive); in experiment [16], 91 µM (inactive); in experiment [17], > 100 µM (inactive); in [18], 46.3 µM (inactive). For the same molecule, the GI50 in experiment [19] and in experiment [20] was > 100 µM (inactive) in each case.

Regarding `O=c1c(C(c2cccnc2)c2c(O)oc3cc(O)ccc3c2=O)c(O)oc2cc(O)ccc12`, the GI50 in experiment [1], in [2], in [3], in experiment [4], in [5] and in experiment [6] was > 100 µM (inactive) in each case. Further, the GI50 in experiment [7], in experiment [8], in experiment [9], in experiment [10], in experiment [11] and in experiment [12] was > 100 µM (inactive) in each case. The GI50 in [13], in experiment [14], in [15], in experiment [16], in [17] and in experiment [18] was > 100 µM (inactive) each time. For the same molecule, the GI50 in experiment [19] and in experiment [20] was > 100 µM (inactive) each time.

Consider `CCCCCCCCCCCCCCCC(=O)OCC(C[As](=O)(O)O)OC(=O)CCCCCCCCCCCCCCC` (centres undefined), for which the GI50 in [1] is > 100 µM (inactive); in experiment [2] it was > 100 µM (inactive); in experiment [3], > 74.5 µM (inactive); in experiment [4] it was 97.3 µM (inactive); in [5], > 68.1 µM (inactive); in [6] it was > 100 µM (inactive). Moreover, the GI50 in experiment [7] is > 50.9 µM (inactive); in experiment [8], > 100 µM (inactive); in experiment [9], > 100 µM (inactive); in experiment [10] it was > 100 µM (inactive); in experiment [11], > 100 µM (inactive); in experiment [12], > 100 µM (inactive). Moreover, the GI50 in [13] was 33 µM (inactive); in experiment [14] it was > 100 µM (inactive); in [15] it was > 71.6 µM (inactive); in experiment [16], > 100 µM (inactive); in experiment [17], > 100 µM (inactive); in experiment [18], > 100 µM (inactive). Besides, the GI50 in [19] and in experiment [20] was > 100 µM (inactive) in each case.

Turning to `CCOc1cccc(/C=N\c2ccccc2SSc2ccccc2/N=C\c2cccc(OCC)c2O)c1O`, the GI50 in experiment [1] was 14.2 µM (inactive); in [2], 16.5 µM (inactive); in [3] it was 9.79 µM (inactive); in experiment [4] it was 9.95 µM (inactive); in experiment [5], 7.46 µM (inactive); in [6] it was 2.92 µM (inactive). Moreover, the GI50 in experiment [7] is 8.49 µM (inactive); in experiment [8], 2.52 µM (inactive); in experiment [9], 3.17 µM (inactive); in [10], 3.38 µM (inactive); in [11], 3.7 µM (inactive); in experiment [12], 1.58 µM (inactive). The GI50 was 19.7 µM (inactive) in [13]; 17.2 µM (inactive) in [14]; 13.5 µM (inactive) in experiment [15]; 4.06 µM (inactive) in experiment [16]; 26.5 µM (inactive) in experiment [17]; 3.55 µM (inactive) in experiment [18]. Further, the figures for the GI50 in experiment [19] and in [20] were 2.62 µM (inactive) and 5.77 µM (inactive), respectively.

For the molecule `Oc1nc2c(c(-c3ccc(Br)cc3)n1)COC/C2=C\c1ccc(Br)cc1`, the GI50 in experiment [1], in experiment [2], in experiment [3], in experiment [4], in experiment [5] and in [6] was > 50 µM (inactive) each time. Besides, the GI50 in [7], in experiment [8], in experiment [9], in [10], in experiment [11] and in experiment [12] was > 50 µM (inactive) in each case. For the same molecule, the GI50 in experiment [13], in [14], in experiment [15], in experiment [16], in experiment [17] and in experiment [18] was > 50 µM (inactive) each time. Besides, the GI50 in [19] and in experiment [20] was > 50 µM (inactive) throughout.

For `COc1cc(-c2oc3ccccc3c(=O)c2O)cc(OC)c1OC`, the GI50 was > 26.1 µM (inactive) in experiment [1]; > 100 µM (inactive) in experiment [2]; > 100 µM (inactive) in [3]; 26.2 µM (inactive) in [4]; 15.6 µM (inactive) in experiment [5]; 6.9 µM (inactive) in [6]. Also, the GI50 is > 80.2 µM (inactive) in [7]; 9.66 µM (inactive) in [8]; 11.3 µM (inactive) in experiment [9]; 4.72 µM (inactive) in experiment [10]; 7.08 µM (inactive) in experiment [11]; > 55.2 µM (inactive) in [12]. For the same molecule, the GI50 is 6.82 µM (inactive) in experiment [13]; > 100 µM (inactive) in experiment [14]; 6.9 µM (inactive) in experiment [15]; 14 µM (inactive) in experiment [16]; 26.3 µM (inactive) in experiment [17]; 4.32 µM (inactive) in experiment [18]. Further, the GI50 in experiment [19] was 4.28 µM (inactive); in experiment [20] it was > 69.3 µM (inactive).

On to `C=C(CO[Si](C)(C)C(C)(C)C)C(C)=O`, for which the GI50 was 15.3 µM (inactive) in experiment [1]; 20.5 µM (inactive) in experiment [2]; 27.7 µM (inactive) in experiment [3]; 22.3 µM (inactive) in experiment [4]; 14.5 µM (inactive) in experiment [5]; 25.5 µM (inactive) in [6]. Also, the GI50 in experiment [7] was 8.15 µM (inactive); in experiment [8], 18.8 µM (inactive); in experiment [9], 26.9 µM (inactive); in [10] it was 2.18 µM (inactive); in experiment [11] it was 13.8 µM (inactive); in experiment [12] it was 20.2 µM (inactive). Moreover, the GI50 was 20 µM (inactive) in experiment [13]; 26.1 µM (inactive) in [14]; 26.5 µM (inactive) in [15]; 13.1 µM (inactive) in experiment [16]; 39.1 µM (inactive) in experiment [17]; 26.9 µM (inactive) in experiment [18]. In addition, the figures for the GI50 in experiment [19] and in experiment [20] were 20.4 µM (inactive) and 18 µM (inactive), respectively.

With `Cc1n[nH]c(=O)c2cc(-c3ccccc3)[nH]c12`, the GI50 in experiment [1] was 73.3 µM (inactive); in [2], 31 µM (inactive); in [3], 75.3 µM (inactive); in experiment [4] it was > 100 µM (inactive); in experiment [5] it was > 100 µM (inactive); in experiment [6], 70.6 µM (inactive). Moreover, the GI50 in [7] was > 100 µM (inactive); in [8], 72.3 µM (inactive); in experiment [9], 34.5 µM (inactive); in experiment [10] it was 17.6 µM (inactive); in experiment [11], 54 µM (inactive); in experiment [12], 91.4 µM (inactive). The GI50 in experiment [13] is 39.2 µM (inactive); in [14], 44.3 µM (inactive); in experiment [15], 32.8 µM (inactive); in experiment [16], 53.3 µM (inactive); in experiment [17] it was > 100 µM (inactive); in experiment [18], 57.8 µM (inactive). For the same molecule, the GI50 in [19] is 54.1 µM (inactive); in experiment [20], 49.8 µM (inactive).

`COC(=O)[C@@H]1Cc2cc(O)c(O)cc2C2(CCN(C)CC2)O1`: the GI50 in experiment [1], in experiment [2], in [3], in experiment [4], in experiment [5] and in experiment [6] was > 10 µM (inactive) throughout. The GI50 in experiment [7], in experiment [8], in experiment [9], in experiment [10], in experiment [11] and in experiment [12] was > 10 µM (inactive) each time. For the same molecule, the GI50 in [13], in [14], in [15], in experiment [16], in [17] and in [18] was > 10 µM (inactive) in each case. For the same molecule, the GI50 in experiment [19] and in experiment [20] was > 10 µM (inactive) throughout.

For `c1ccc2c[n+](CCCCCCCCCC[n+]3ccc4ccccc4c3)ccc2c1`, the GI50 is > 10 µM (inactive) in experiment [1]; > 10 µM (inactive) in experiment [2]; 0.92 µM (active) in experiment [3]; > 10 µM (inactive) in [4]; > 10 µM (inactive) in experiment [5]; > 10 µM (inactive) in [6]. The GI50 was > 10 µM (inactive) in [7]; > 10 µM (inactive) in experiment [8]; > 7.52 µM (inactive) in [9]; > 10 µM (inactive) in [11]; 2.11 µM (inactive) in experiment [12]; 3.68 µM (inactive) in experiment [13]. Also, the GI50 in [14] was > 10 µM (inactive); in experiment [15], > 10 µM (inactive); in experiment [16], > 10 µM (inactive); in experiment [17], > 10 µM (inactive); in [18], > 10 µM (inactive); in experiment [19] it was > 4.35 µM (inactive). Also, in [20], the GI50 was 3.48 µM (inactive).
